Here are results for 7 compounds from ChEMBL document CHEMBL1201862, “PubChem BioAssay data set” (2004).

Common to all, as to experiment: NCI tumour cell line growth inhibition, 48 h
The test system of assay [1] is SR.
Assay [2] relates to Malme-3M.
The test system of assay [3] is T47D.
The subject of assay [4] is NCI-H226.
Assay [5] concerns A549.
Assay [6] relates to BT-549.
Assay [7] concerns HOP-62.
Assay [8] deals with TK-10.
Assay [9] concerns SF-268.
The subject of assay [10] is HCT-116.
For assay [11], the system named is EKVX.
The test system of assay [12] is SNB-19.
Assay [13] relates to UO-31.
Assay [14] deals with RXF 393.
Assay [15] has as its system SN12C.
The test system of assay [16] is NCI-H522.
Assay [17] deals with HL-60.
In assay [18] the test system is CCRF-CEM.
Assay [19] deals with KM12.
Assay [20] has as its system OVCAR-3.

The structures appear in SMILES notation.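 Values below derive from 48-hour exposures of cells grown in 96-well plates, with endpoints linearly interpolated between the two concentrations bracketing the appropriate inhibition level. GI50 is the concentration that inhibits growth by half.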 Calls of active or inactive are those of the source. No stated cut-off is given here; in the data, active = GI50 up to about 1.1 µM and inactive = higher. Where only a bound is given, the exact number is not on record here.

In the case of `COP(=O)(OC)C1=c2c(C)noc2=C2C=COC2C1=O` (stereo not given), the GI50 in assay [1] is > 100 µM (inactive); in assay [2] it was > 100 µM (inactive); in [3] it was > 10 µM (inactive); in [4], > 100 µM (inactive); in assay [5], > 100 µM (inactive); in assay [6], > 100 µM (inactive). The GI50 in assay [7], in [8], in assay [9], in assay [10], in assay [11] and in assay [12] was > 100 µM (inactive) in each case. Besides, the GI50 in [13], in [14], in assay [15], in assay [16], in assay [17] and in assay [18] was > 100 µM (inactive) throughout. Besides, the GI50 in [19] and in assay [20] was > 100 µM (inactive) each time.

For `C=CCOc1ccc(C(=N/NC(=O)c2ccccc2)/N=N/c2ccc([N+](=O)[O-])cc2)cc1OC`, the GI50 in assay [1] was > 100 µM (inactive); in assay [2] it was > 100 µM (inactive); in [3] it was 29 µM (inactive); in [4], > 100 µM (inactive); in assay [5], > 100 µM (inactive); in assay [6], > 100 µM (inactive). The GI50 in assay [7] is > 100 µM (inactive); in assay [8], > 100 µM (inactive); in assay [9], > 100 µM (inactive); in [10], 58.6 µM (inactive); in assay [11], > 100 µM (inactive); in assay [12], > 100 µM (inactive). For the same compound, the GI50 in assay [13] was > 100 µM (inactive); in assay [14], > 100 µM (inactive); in assay [15], > 100 µM (inactive); in [16], > 100 µM (inactive); in assay [17], 93.3 µM (inactive); in assay [18], > 100 µM (inactive). In addition, the GI50 in assay [19] and in assay [20] was > 100 µM (inactive) each time.

Take `O=C(O)CCC(=O)c1ccc2ccc3cccc4ccc1c2c34`: the GI50 in assay [1] was 45.7 µM (inactive); in assay [2], > 100 µM (inactive); in assay [3], 83 µM (inactive); in [4], 49 µM (inactive); in assay [5] it was 62.2 µM (inactive); in assay [6], 63.2 µM (inactive). Further, the GI50 in [7] was 84.5 µM (inactive); in [8], 49.1 µM (inactive); in [9], 61.7 µM (inactive); in [10], 65.8 µM (inactive); in assay [11], 58.2 µM (inactive); in [12] it was 92.9 µM (inactive). In addition, the GI50 was 94.6 µM (inactive) in assay [13]; 46.5 µM (inactive) in assay [14]; 57 µM (inactive) in assay [15]; 83.8 µM (inactive) in assay [16]; 23 µM (inactive) in assay [17]; 45.3 µM (inactive) in [18]. Moreover, the GI50 was 55.2 µM (inactive) in assay [19] and 53.7 µM (inactive) in assay [20].

For the compound `N#CC(c1ccnc(Cl)n1)c1nc2ccccc2s1` (stereo not given), the GI50 is 3.03 µM (inactive) in assay [1]; 2.7 µM (inactive) in [2]; 4.19 µM (inactive) in assay [3]; 3.76 µM (inactive) in assay [4]; 8.59 µM (inactive) in assay [5]; 3.29 µM (inactive) in assay [6]. In addition, the GI50 in assay [7] was 18.7 µM (inactive); in assay [8], 7.33 µM (inactive); in assay [9] it was 4.98 µM (inactive); in assay [10], 2.58 µM (inactive); in assay [11], 20.2 µM (inactive); in assay [12], 4.35 µM (inactive). The GI50 in assay [13] was 4.07 µM (inactive); in assay [14], 4.44 µM (inactive); in [15], 2.87 µM (inactive); in [16], 1.6 µM (inactive); in assay [17], 1.17 µM (inactive); in assay [18], 0.063 µM (active). The figures for the GI50 in assay [19] and in [20] were 4.37 µM (inactive) and 5.55 µM (inactive), respectively.

Consider `CCCNC(=O)Cn1c(-c2ccccc2)cc2ccccc21`, for which the GI50 is > 100 µM (inactive) in assay [1]; 92 µM (inactive) in [2]; 24.2 µM (inactive) in [3]; > 100 µM (inactive) in assay [4]; 67.1 µM (inactive) in [5]; > 100 µM (inactive) in assay [6]. In addition, the GI50 in [7] is 67.3 µM (inactive); in [8], 43.1 µM (inactive); in assay [9], 92 µM (inactive); in assay [10], 24.2 µM (inactive); in assay [11], 30.6 µM (inactive); in [12], > 100 µM (inactive). Besides, the GI50 in assay [13] was > 100 µM (inactive); in [14] it was 18.5 µM (inactive); in [15], > 100 µM (inactive); in assay [16], 23.7 µM (inactive); in assay [17] it was > 100 µM (inactive); in assay [18] it was > 100 µM (inactive). Further, the results for the GI50 in [19] and in [20] were > 100 µM (inactive) and 91.8 µM (inactive), respectively.

For the compound `N=C1C(=N)c2ccccc2-c2ccccc21`, the GI50 in assay [1] is 0.695 µM (active); in assay [2], 1.19 µM (inactive); in assay [3], 0.419 µM (active); in assay [4] it was 1.82 µM (inactive); in assay [5], 1.74 µM (inactive); in assay [6], 0.914 µM (active). Further, the GI50 in assay [7] is 1.67 µM (inactive); in [8], 1.65 µM (inactive); in [9], 2.1 µM (inactive); in assay [10], 0.384 µM (active); in assay [11], 1.9 µM (inactive); in [12], 1.53 µM (inactive). The GI50 in assay [13] is 1.61 µM (inactive); in assay [14], 1.82 µM (inactive); in assay [15] it was 1.19 µM (inactive); in assay [16], 1.21 µM (inactive); in assay [17], 0.194 µM (active); in [18], 0.376 µM (active). Moreover, the GI50 in assay [19] was 1.85 µM (inactive); in assay [20] it was 0.354 µM (active).

In the case of `COc1ccc(OC)c([N+](=O)[O-])c1-c1nc2sc(C)c(C)n2c1/C=N/N=C(N)N`, the GI50 in [1] was 62.4 µM (inactive); in assay [2], 60.7 µM (inactive); in assay [3], 23.4 µM (inactive); in assay [4], > 100 µM (inactive); in [5], > 100 µM (inactive); in assay [6], 25.9 µM (inactive). Further, the GI50 in assay [7] was > 100 µM (inactive); in assay [8], > 100 µM (inactive); in [9], 45.6 µM (inactive); in assay [10], > 100 µM (inactive); in assay [11] it was > 100 µM (inactive); in assay [12], 36.3 µM (inactive). Further, the GI50 was > 100 µM (inactive) in [13]; > 100 µM (inactive) in assay [14]; > 100 µM (inactive) in assay [15]; 41.8 µM (inactive) in [16]; 25.6 µM (inactive) in assay [17]; 50.7 µM (inactive) in assay [18]. In addition, the GI50 in [19] is 20.9 µM (inactive); in [20], > 100 µM (inactive).
